# According to paper PMC12508460 (Nature Communications, 2025):
# Substitutions are numbered along the chain they refer to.
# Experiments:
# [1] = target: T1, WT DP1 (Homo sapiens, UniProt Q13258); test: Cyclic AMP GloSensor assay
# T1 sequence (Q13258 1-359): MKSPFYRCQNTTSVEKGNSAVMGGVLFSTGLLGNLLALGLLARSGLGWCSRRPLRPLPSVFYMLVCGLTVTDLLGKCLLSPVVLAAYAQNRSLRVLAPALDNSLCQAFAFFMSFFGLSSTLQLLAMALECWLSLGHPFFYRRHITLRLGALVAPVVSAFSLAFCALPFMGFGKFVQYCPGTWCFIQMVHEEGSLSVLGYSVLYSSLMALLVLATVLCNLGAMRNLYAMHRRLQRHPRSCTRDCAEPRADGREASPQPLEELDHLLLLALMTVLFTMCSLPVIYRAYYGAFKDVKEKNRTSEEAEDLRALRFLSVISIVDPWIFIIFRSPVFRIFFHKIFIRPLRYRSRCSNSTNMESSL
# [2] = target: T2, DP1 R327^8.47A (Homo sapiens, UniProt Q13258, R327A); test: ONE-GO BRET Gs protein activation assay; assay type: cell-based
# T2 sequence (Q13258 1-359 R327A): T1 sequence (Q13258 1-359) with R327A
compound,measurement,setting,value
"Cc1cc(OC[C@@H]2CN(C)c3ccccc3O2)cc(C)c1C(=O)Nc1ccc(Cl)c(CC(=O)O)c1 [ONO2550289, (S)-2-(2-chloro-5-(2,6-dimethyl-4-((4-methyl-3,4-dihydro-2H-benzo[b][1,4]oxazin-2-yl)methoxy)benzamido)phenyl)acetic acid]",EC50,[1],1.1 nM
same,Effect on basal activity of DP1 in cAMP accumulation assays,[1],fully inhibit the basal activity
"Cc1cc(OC[C@@H]2CN(C)c3ccccc3O2)cc(C)c1C(=O)Nc1ccc(Cl)c(C2(C(=O)O)CC2)c1 [ONO3030297, (S)-1-(2-chloro-5-(2,6-dimethyl-4-((4-methyl-3,4-dihydro-2H-benzo[b][1,4]oxazin-2-yl)methoxy)benzamido)phenyl)cyclopropane-1-carboxylic acid]",EC50,[1],1.3 nM
same,Effect on basal activity of DP1 in cAMP accumulation assays,[1],fully inhibit the basal activity
"CCCCC[C@H](O)/C=C/[C@H]1C(=O)C[C@H](O)[C@@H]1C/C=C\CCCC(=O)O [PGD2, Prostaglandin D2]",Reduction of the potency of PGD2 by the R327^8.47A mutation,[2],over 70 fold
same,EC50,[1],6.2 nM
